Data as given in patent US7135615B2, “Chromosome doubling method” (The Curators of the University of Missouri, priority 2001, dated 2006).
Where “and” joins values, the source holds several entries; their conditions need not be identical. Identical values can stand only once. Marks after values point to notes of the source that are not given here.

Legend:
[1] = test system: haploid seedlings; assay: survival of haploid seedlings treated with nitrous oxide gas (all experiments); type: in vivo, maize (Zea mays L.); settings: 450 haploid seedlings treated
Method: The germinated seeds were transferred to small plastic pots filled with ProMix, a peat moss based growing medium (Hummert, St. Louis, Miss.). The seedlings were grown in a greenhouse for one to four weeks. Stock 6 induced 1–5 putative haploid kernels per ear (purple kernel with white embryo or yellow kernel with purple embryo) on all genotypes. A total of 715 putative haploid kernels were planted for the experiments. Most of them (94%) were determined to be haploid from their morphology and high sterility. The remaining 4.7% were misclassified F1s, 1.1% were hypoploids, and 0.3% (one plant induced from B73 and one plant from Oh43×Mol7) were spontaneous doubled haploids. […] In a second study, fourteen out of 50 treated Oh43 haploid seedlings died from fungus attack.

[2] = test system: maize haploid seedlings of origin A619; assay: doubled haploid production trial, A619 haploids (Example 4); settings: 600 kPa, 2 days; for Ear: No. of kernels produced/ear: selfed
Method: (§1) Ten to nineteen plants were treated for each plot. Self pollinations were conducted on these treated haploids if there were fertile sectors on the tassel. Pollen grains were collected carefully on a sheet of paper and transferred to the silks repeatedly. Silks and husks were cut back prior to pollination in order to permit maximum seed set. The numbers of fertile tassel and ear sectors, as well as the numbers of anthers and selfed kernels were recorded. Statistical analyses were as described above.

[3] = test system: maize haploid seedlings of origin B73; assay: doubled haploid production trial, B73 haploids (Example 4); settings: for Ear: Plants with kernels after selfing % / Tassel: No. of fertile anthers extruded/tassel / Tassel: No. of fertile sectors/tassel / Tassel: Plants with fertile sectors % / Ear: Plants with kernels after selfing No. / Tassel: Plants with fertile sectors No. / No. of plants Survived / Ear: No. of kernels produced/ear: B73 haploids, 600 kPa, 2 days; for Ear: Plants with kernels after selfing No. / Tassel: Plants with fertile sectors No.: 11 survived; for No. of plants Survived: 11 treated; for Ear: No. of kernels produced/ear: selfed
Method: as §1

[4] = test system: maize haploid seedlings of origin A619 × B73; assay: doubled haploid production trial, A619 × B73 haploids (Example 4); settings: 600 kPa, 2 days; for Ear: No. of kernels produced/ear: selfed
Method: as §1

[5] = test system: B55 haploid plants; assay: nitrous oxide treatment of B55 haploids (initial study, Example 1)
Method: Maize haploids were induced by the stock 6 procedure (Coe 1959) and separated by the color marker R1-scm2 (Kato, 1999c). […] Haploid seeds were surface sterilized with the fungicide Captan and germinated in moist vermiculite at 30° C. for two days. The germinated seeds were planted at the edge of a small pot filled with ProMix (FIG. 1).
Application of a water mist to the plastic carpet may be used to prevent the occurrence of a static charge. […] The chamber was made from steel pipes and flanges designed for industrial use. Two 3 foot long pipes with flanges at both sides were connected to each other with 8 bolts to form the chamber. Iron covers were applied at the both ends. […] The chamber was preferably earthed.
Because the gas from the tank was very cold, use of a long introductory tube (5 m) submerged in water was made to warm up the gas before introduction into the chamber. Application of paper wrapped moistened calcium hydroxide was also preferable to absorb accumulating carbon dioxide in the chamber.
After N2O treatment the seedlings were kept at warm temperature (20–25° C.) in the greenhouse for two to three days and transplanted to the field or pots in the greenhouse. […] The plants were then grown and self pollinated. Cultivation and self pollination methods were the same as for diploid maize plants.

[6] = test system: maize haploid seedlings of origin B55; assay: doubled haploid production trial, B55 haploids (Example 4); settings: for Ear: Plants with kernels after selfing % / Tassel: No. of fertile anthers extruded/tassel / Tassel: No. of fertile sectors/tassel / Tassel: Plants with fertile sectors % / Ear: Plants with kernels after selfing No. / Tassel: Plants with fertile sectors No. / No. of plants Survived / Ear: No. of kernels produced/ear: B55 haploids, 600 kPa, 2 days; for Ear: No. of kernels produced/ear: selfed
Method: as §1

SMILES: [N-]=[N+]=O [nitrous oxide gas, nitrous oxide]
- survived the treatment [1]: 92%
- Ear: Plants with kernels after selfing % ([2]; 5 leaf stage): 17 n.s. %
- Tassel: No. of fertile anthers extruded/tassel ([2]; 5 leaf stage): 4.5 n.s /tassel
- Tassel: No. of fertile sectors/tassel ([2]; 5 leaf stage): 0.3 n.s. /tassel
- Tassel: Plants with fertile sectors % ([2]; 5 leaf stage): 25 n.s. %
- Ear: Plants with kernels after selfing No. ([2]; 5 leaf stage, 12 survived): 2
- Tassel: Plants with fertile sectors No. ([2]; 5 leaf stage, 12 survived): 3
- No. of plants Survived ([2]; 5 leaf stage, 12 treated): 12
- Ear: No. of kernels produced/ear ([2]; 5 leaf stage): 0.3 n.s. /ear
- Ear: Plants with kernels after selfing % ([2]; 6 leaf stage): 33%
- Tassel: No. of fertile anthers extruded/tassel ([2]; 6 leaf stage): 3.2 /tassel
- Tassel: No. of fertile sectors/tassel ([2]; 6 leaf stage): 0.6 /tassel
- Tassel: Plants with fertile sectors % ([2]; 6 leaf stage): 56%
- Ear: Plants with kernels after selfing No. ([2]; 6 leaf stage, 9 survived): 3
- Tassel: Plants with fertile sectors No. ([2]; 6 leaf stage, 9 survived): 5
- No. of plants Survived ([2]; 6 leaf stage, 9 treated): 9
- Ear: No. of kernels produced/ear ([2]; 6 leaf stage): 2.0 /ear
- Ear: Plants with kernels after selfing % ([2]; 7 leaf stage): 31%
- Tassel: No. of fertile anthers extruded/tassel ([2]; 7 leaf stage): 8.2 /tassel
- Tassel: No. of fertile sectors/tassel ([2]; 7 leaf stage): 1.6 /tassel
- Tassel: Plants with fertile sectors % ([2]; 7 leaf stage): 54%
- Ear: Plants with kernels after selfing No. ([2]; 7 leaf stage, 13 survived): 4
- Tassel: Plants with fertile sectors No. ([2]; 7 leaf stage, 13 survived): 7
- No. of plants Survived ([2]; 7 leaf stage, 14 treated): 13
- Ear: No. of kernels produced/ear ([2]; 7 leaf stage): 1.6 /ear
- ear and silk abnormalities ([3]; B73 haploids treated at the 7 leaf stage): deformed ears and delayed silk emergence
- Ear: Plants with kernels after selfing % ([3]; 5 leaf stage): 36 n.s. %
- Tassel: No. of fertile anthers extruded/tassel ([3]; 5 leaf stage): 3.5 n.s /tassel
- Tassel: No. of fertile sectors/tassel ([3]; 5 leaf stage): 0.5 n.s. /tassel
- Tassel: Plants with fertile sectors % ([3]; 5 leaf stage): 45 n.s. %
- Ear: Plants with kernels after selfing No. ([3]; 5 leaf stage): 4
- Tassel: Plants with fertile sectors No. ([3]; 5 leaf stage): 5
- No. of plants Survived ([3]; 5 leaf stage): 11
- Ear: No. of kernels produced/ear ([3]; 5 leaf stage): 2.4 n.s. /ear
- Ear: Plants with kernels after selfing % ([3]; 6 leaf stage): 45%
- Tassel: No. of fertile anthers extruded/tassel ([3]; 6 leaf stage): 13.2 /tassel
- Tassel: Plants with fertile sectors % ([3]; 6 leaf stage): 64%
- Ear: Plants with kernels after selfing No. ([3]; 6 leaf stage): 5
- Tassel: Plants with fertile sectors No. ([3]; 6 leaf stage): 7
- No. of plants Survived ([3]; 6 leaf stage): 11
- Ear: No. of kernels produced/ear ([3]; 6 leaf stage): 10.7 /ear
- Ear: Plants with kernels after selfing % ([3]; 7 leaf stage): 18%
- Tassel: No. of fertile anthers extruded/tassel ([3]; 7 leaf stage): 14.9 /tassel
- Tassel: No. of fertile sectors/tassel ([3]; 7 leaf stage): 1.4 /tassel
- Tassel: Plants with fertile sectors % ([3]; 7 leaf stage): 64%
- Ear: Plants with kernels after selfing No. ([3]; 7 leaf stage): 2
- Tassel: Plants with fertile sectors No. ([3]; 7 leaf stage): 7
- No. of plants Survived ([3]; 7 leaf stage): 11
- Ear: No. of kernels produced/ear ([3]; 7 leaf stage): 0.9 /ear
- Ear: Plants with kernels after selfing % ([4]; 5 leaf stage): 36 n.s. %
- Tassel: No. of fertile anthers extruded/tassel ([4]; 5 leaf stage): 20.8** /tassel
- Tassel: Plants with fertile sectors % ([4]; 5 leaf stage): 73** %
- Ear: Plants with kernels after selfing No. ([4]; 5 leaf stage, 11 survived): 4
- Tassel: Plants with fertile sectors No. ([4]; 5 leaf stage, 11 survived): 8
- No. of plants Survived ([4]; 5 leaf stage, 12 treated): 11
- Ear: No. of kernels produced/ear ([4]; 5 leaf stage): 4.2 n.s. /ear
- Ear: Plants with kernels after selfing % ([4]; 6 leaf stage): 36%
- Tassel: No. of fertile anthers extruded/tassel ([4]; 6 leaf stage): 34.5** /tassel
- Tassel: No. of fertile sectors/tassel ([4]; 6 leaf stage): 1.7** /tassel
- Tassel: Plants with fertile sectors % ([4]; 6 leaf stage): 73** %
- Ear: Plants with kernels after selfing No. ([4]; 6 leaf stage, 11 survived): 4
- Tassel: Plants with fertile sectors No. ([4]; 6 leaf stage, 11 survived): 8
- No. of plants Survived ([4]; 6 leaf stage, 11 treated): 11
- Ear: No. of kernels produced/ear ([4]; 6 leaf stage): 6.2 /ear
- Ear: Plants with kernels after selfing % ([4]; 7 leaf stage): 17%
- Tassel: No. of fertile anthers extruded/tassel ([4]; 7 leaf stage): 4.8* /tassel
- Tassel: Plants with fertile sectors % ([4]; 7 leaf stage): 75** %
- Ear: Plants with kernels after selfing No. ([4]; 7 leaf stage, 12 survived): 2
- Tassel: Plants with fertile sectors No. ([4]; 7 leaf stage, 12 survived): 9
- No. of plants Survived ([4]; 7 leaf stage, 12 treated): 12
- Ear: No. of kernels produced/ear ([4]; 7 leaf stage): 3.5 /ear
- B55 haploid plants that could be self pollinated ([5]; B55 haploids, 6 atm (600 kPa), two days, room temperature): 70–90%
- treated plants sensitive to drought following treatment ([5]; after N2O treatment, upon transplantation): 10%
- induction of doubled sectors ([5]; initial study, B55 haploids, 600 kPa): induced doubled sectors in both the tassel and the ear
- damage to plants ([5]; initial study, sealed chamber, room temperature): not damaged
- successful self pollination rate ([6]; B55 haploids after nitrous oxide treatment): 90–100%
- Ear: Plants with kernels after selfing % ([6]; 5 leaf stage): 60** %
- Tassel: No. of fertile anthers extruded/tassel ([6]; 5 leaf stage): 161.3** /tassel
- Tassel: No. of fertile sectors/tassel ([6]; 5 leaf stage): 1.6 /tassel
- Tassel: Plants with fertile sectors % ([6]; 5 leaf stage): 90** %
- Ear: Plants with kernels after selfing No. ([6]; 5 leaf stage, 10 survived): 6
- Tassel: Plants with fertile sectors No. ([6]; 5 leaf stage, 10 survived): 9
- No. of plants Survived ([6]; 5 leaf stage, 10 treated): 10
- Ear: No. of kernels produced/ear ([6]; 5 leaf stage): 31.5* /ear
- Ear: Plants with kernels after selfing % ([6]; 6 leaf stage): 90%
- Tassel: No. of fertile anthers extruded/tassel ([6]; 6 leaf stage): 380 /tassel and 380.1** /tassel
- Tassel: No. of fertile sectors/tassel ([6]; 6 leaf stage): 4.5** /tassel
- Tassel: Plants with fertile sectors % ([6]; 6 leaf stage): 100** %
- Ear: Plants with kernels after selfing No. ([6]; 6 leaf stage, 10 survived): 9
- Tassel: Plants with fertile sectors No. ([6]; 6 leaf stage, 10 survived): 10
- No. of plants Survived ([6]; 6 leaf stage, 10 treated): 10
- Ear: No. of kernels produced/ear ([6]; 6 leaf stage): 61.6 /ear
- Ear: Plants with kernels after selfing % ([6]; 7 leaf stage): 78** %
- Tassel: No. of fertile anthers extruded/tassel ([6]; 7 leaf stage): 401.3** /tassel
- Tassel: No. of fertile sectors/tassel ([6]; 7 leaf stage): 10.6** /tassel
- Tassel: Plants with fertile sectors % ([6]; 7 leaf stage): 100** %
- Ear: Plants with kernels after selfing No. ([6]; 7 leaf stage, 9 survived): 7
- Tassel: Plants with fertile sectors No. ([6]; 7 leaf stage, 9 survived): 9
- No. of plants Survived ([6]; 7 leaf stage, 9 treated): 9
- Ear: No. of kernels produced/ear ([6]; 7 leaf stage): 65.6** /ear
